ChEMBL document CHEMBL1147874, “Structure-activity based study of the Smac-binding pocket within the BIR3 domain of XIAP” (Bioorg Med Chem, 2007)
The source made the active and inactive calls. The calls are words filed in the database; no cut-off is given here.

Legend:
[1] = target: E3 ubiquitin-protein ligase XIAP (Homo sapiens, UniProt P98170); test: Binding affinity to BIR3 domain of XIAP by competitive fluorescent binding assay
[2] = species: Homo sapiens; test: Cytotoxicity against […] cells assessed as reduction in cell viability at 30 to 500 uM after 72 hrs by MTT assay; type: functional, cell-based

Chain of E3 ubiquitin-protein ligase XIAP (P98170 whole entry, the tested form may be a part): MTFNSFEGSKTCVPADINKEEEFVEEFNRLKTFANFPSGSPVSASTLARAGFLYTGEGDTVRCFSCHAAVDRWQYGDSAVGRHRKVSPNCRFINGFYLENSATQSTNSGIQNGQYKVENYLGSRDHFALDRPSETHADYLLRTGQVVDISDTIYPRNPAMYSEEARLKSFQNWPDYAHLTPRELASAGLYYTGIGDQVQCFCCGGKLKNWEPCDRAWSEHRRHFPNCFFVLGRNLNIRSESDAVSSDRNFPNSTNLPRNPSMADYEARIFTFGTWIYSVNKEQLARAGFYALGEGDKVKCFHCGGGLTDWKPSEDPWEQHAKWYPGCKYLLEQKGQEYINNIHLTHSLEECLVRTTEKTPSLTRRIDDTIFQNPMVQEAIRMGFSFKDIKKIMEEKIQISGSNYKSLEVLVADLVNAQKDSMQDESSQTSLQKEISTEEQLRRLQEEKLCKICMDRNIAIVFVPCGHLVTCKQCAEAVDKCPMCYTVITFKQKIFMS

Kd [1] [µM] | Structure (SMILES) | Activity [2]
11 | C[C@H](N)c1nc(C(=O)N2CCC[C@H]2C(=O)N[C@@H](Cc2ccccc2)C(=O)O)co1 | 
 | CC[C@H](C)[C@H](NC(=O)[C@@H]1CCCN1C(=O)[C@@H](NC(=O)[C@H](C)N)C(C)C)C(=O)O | inactive
300 | CC[C@H](C)[C@H](NC(=O)[C@@H]1CCCN1C(=O)c1coc([C@H](C)N)n1)C(=O)O | 
 | C[C@H](N)c1nc(C(=O)N2CCC[C@H]2C(=O)N[C@@H](Cc2c[nH]c3ccccc23)C(=O)O)co1 | Active
